Data from patent US20260070927A1, “INDAZOLE MACROCYCLES FOR THE TREATMENT OF AUTOIMMUNE DISEASE” (Hoffmann-La Roche Inc., priority 2022, published 2026).

Columns and labels:
[1] = system: STING (IFN-β in hPBMC); experiment: hPBMC cytokine functional assay (IFN-β decrease after Baculovirus stimulation); type: cell-based; settings: Homo sapiens, Baculovirus MOI 40, 24 hours, read-out: hPBMC_IC50
Procedure: The inhibition of STING by compounds could be measured by the decrease of IFN-β in hPBMC, which is stimulated by a double stranded DNA virus Baculoviurs (Purchased from Genescript, pCMV-Dest Vector virus generation P2 BV stock virus, Sf-900 II medium with 5% FBS, Lot C9835DK230-2/P4DL001). Frozen hPBMC cells (purchased from Stemcell Technologies, cat number is 70025, Lot 191070803C) were thawed at 37° C. water bath, then cells were re-suspended in 50 ml tube using 20 ml Cell culture medium, and then centrifuged for 5 min at 2000 rpm before the supernatant was removed carefully. The cells were re-suspended in culture medium (RPMI-1640 with 1.5 g/L NaHCO3, 4.5 g/L glucose, 10 mM HEPES and 1 mM Na-pyruvate, 10% HI-FBS); 65 μL of the cell suspension was dispensed into 384 well plate (70K cells/well) by Multidrop Combi with at least 3 hours incubation at 37° C., 5% CO2 cell incubator.
Then 4 μL of compound solution per well (final 0.5% DMSO) was transferred by Agilent Bravo followed by infection with 11 μL of Baculovirus at a final MOI of 40. The level of IFN-β secreted in the supernatant of hPBMC was determined after 24 hours of incubation at 37° C. cell incubator by human IFN-β HTRF assay (Cisbio, cat: 62HIFNBPEH) following the manufacture's instruction. CellTiter-Glo kit (Promega, cat: G7573) was applied for the cell viability evaluation using Envision.

[2] = target: human stimulator of interferon genes (STING) (139-379) (Homo sapiens (Human), UniProt Q86WV6); experiment: Microliter plate-based TR-FRET competition-binding assay for binders of STING; settings: Alexa488 probe, read-out: FRET_IC50
Procedure: This is the competition-binding assay to test the compounds' potency to the C-terminal Domain (CTD) and ligand-binding domain of human stimulator of interferon genes (STING). STING (139-379, Q86WV6, http://www.uniprot.org/uniprot) recombinant protein (in 20 mM Tris, 150 mM NaCl, pH 8.0, and expression in Escherichia coli (E. coli) BL21 (DE3)) with a C-terminal flag-tag was employed for the assay. When Alexa-488 labeled active site probe (refer to patent WO2017/175156 A1) bounds to STING (139-379), it accepts the 485 nm emission from Tb-M2-Flag-STING and results in an increase in fluorescence at 520 nm. Compounds that compete for the probe-binding site will reduce 520 nm signal. The assay was run in proxiplate-384 plus (PerkinElmer, cat: 60150300) containing of 2.5 nM STING, 2.5 nM M2-Tb (Cisbio, 61FG2TLA, Lot: 17 A) and 250 nM Alexa488 probe. Plates were centrifuged for 1 min at 1000 rpm, incubated for 30 min at room temperature, and then measured the dual fluorescence emission at 520 nm/485 nM following 320 nm laser excitation on an Envision plate reader (Perkin-Elmer). The compounds' effect on the STING binding is detected by measuring ratiometric fluorescence from time-resolved FRET. The percentage of inhibition of at each compound concentration is calculated on the basis of their changes of TR-FRET efficiency relative to the change of TR-FRET caused by positive control 2′3′cGAMP (Sigma, cat: SML1229).

[3] = Metabolic (liver microsomal) stability assay; settings: human liver microsomes, 1 μM test compound
Procedure: The liver microsomal stability assay is used for early assessment of metabolic stability of a test compound in liver microsomes.
Liver microsomes were preincubated with test compound for 10 minutes at 37° C. in 100 mM potassium phosphate buffer, pH 7.4. The reactions were initiated by adding NADPH regenerating system. The final incubation mixtures contained 1 μM test compound, 0.5 mg/mL liver microsomal protein, 1 mM MgCl2, 1 mM NADP, 1 unit/mL isocitric dehydrogenase and 6 mM isocitric acid in 100 mM potassium phosphate buffer, pH 7.4. After incubation times of 0, 3, 6, 9, 15 and 30 minutes at 37° C., 300 μL of cold acetonitrile (including internal standard) was added to 100 μL incubation mixture to terminate the reaction. Following precipitation and centrifugation, the amount of compound remaining in the samples were determined by LC-MS/MS. Controls of no NADPH regenerating system at zero and 30 minutes were also prepared and analyzed.

Chain of human stimulator of interferon genes (STING) (139-379) (Q86WV6 139-379): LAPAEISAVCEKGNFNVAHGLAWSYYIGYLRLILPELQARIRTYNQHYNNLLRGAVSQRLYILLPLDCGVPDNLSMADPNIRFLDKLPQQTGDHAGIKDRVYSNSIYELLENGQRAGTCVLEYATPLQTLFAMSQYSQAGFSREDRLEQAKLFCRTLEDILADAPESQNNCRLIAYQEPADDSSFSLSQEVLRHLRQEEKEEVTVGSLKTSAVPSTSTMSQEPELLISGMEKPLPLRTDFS

In the case of `CN1CCCc2c3c(cccc3nn2C)-c2ccnc(n2)N[C@H]2C[C@@H](C1=O)N(c1ncnc3c1cnn3-c1ccc(F)cc1F)C2` [Example 4, (8S,11S)-10-[1-(2,4-difluorophenyl)pyrazolo[3,4-d]pyrimidin-4-yl]-13,18-dimethyl-5,7,10,13,18,19,26-heptazapentacyclo[15.6.1.1^2,6.1^8,11.0^20,24]hexacosa-1(23),2,4,6(26),17(24),19,21-heptaen-12-one], the IC50 [1] is reported as 413 nM, the IC50 [2] is reported as 0.5 nM and the “Clearance of human microsome” value [3] is reported as 15.0 mL/min/kg.
With `CN1CCCc2c3c(cccc3nn2C)-c2cncc(n2)N[C@H]2C[C@@H](C1=O)N(c1ncnc3c1cnn3-c1ccc(F)cc1F)C2` [Example 7, (8S,11S)-10-[1-(2,4-difluorophenyl)pyrazolo[3,4-d]pyrimidin-4-yl]-13,18-dimethyl-4,7,10,13,18,19,26-heptazapentacyclo[15.6.1.1^2,6.1^8,11.0^20,24]hexacosa-1(23),2,4,6(26),17(24),19,21-heptaen-12-one] the IC50 [1] was 325 nM, the IC50 [2] was 0.4 nM and the “Clearance of human microsome” value [3] was 13.3 mL/min/kg.
With `COc1cc(F)ccc1-n1ncc2c(N3C[C@@H]4C[C@H]3C(=O)N(C)CCCc3c5c(cc(F)cc5nn3C)-c3ccnc(n3)O4)ncnc21` [Example 12, (8S,11S)-22-fluoro-10-[1-(4-fluoro-2-methoxy-phenyl)pyrazolo[3,4-d]pyrimidin-4-yl]-13,18-dimethyl-7-oxa-5,10,13,18,19,26-hexazapentacyclo[15.6.1.1^2,6.1^8,11.0^20,24]hexacosa-1(23),2(26),3,5,17(24),19,21-heptaen-12-one] the IC50 [1] was 1410 nM, the IC50 [2] was 18 nM and the “Clearance of human microsome” value [3] was 13.2 mL/min/kg.
`COCCCN1CCCc2c3c(cccc3nn2C)-c2cccc(c2)O[C@H]2C[C@@H](C1=O)N(c1ncnc3c1cnn3-c1ccc(F)cc1F)C2` [Example 27, (8S,11S)-10-[1-(2,4-difluorophenyl)pyrazolo[3,4-d]pyrimidin-4-yl]-13-(3-methoxypropyl)-18-methyl-7-oxa-10,13,18,19-tetrazapentacyclo[15.6.1.1^2,6.1^8,11.0^20,24]hexacosa-1(23),2(26),3,5,17(24),19,21-heptaen-12-one] gave an IC50 [1] of 23 nM and an IC50 [2] of 14.2 nM.
In the case of `Cn1nc2cccc3c2c1CCCN(CCOCc1ccncc1)C(=O)[C@@H]1C[C@@H](CN1c1ncnc2c1cnn2-c1ccc(F)cc1F)Oc1cccc-3c1` [Example 28, (8S,11S)-10-[1-(2,4-difluorophenyl)pyrazolo[3,4-d]pyrimidin-4-yl]-18-methyl-13-[2-(4-pyridylmethoxy)ethyl]-7-oxa-10,13,18,19-tetrazapentacyclo[15.6.1.1^2,6.1^8,11.0^20,24]hexacosa-1(23),2(26),3,5,17(24),19,21-heptaen-12-one], the IC50 [1] is reported as 184 nM and the IC50 [2] is reported as 0.2 nM.
For `Cn1nc2cccc3c2c1CCCN(CCCc1ccccc1)C(=O)[C@@H]1C[C@@H](CN1c1ncnc2c1cnn2-c1ccc(F)cc1F)Oc1cccc-3c1` [Example 29, (8S,11S)-10-[1-(2,4-difluorophenyl)pyrazolo[3,4-d]pyrimidin-4-yl]-18-methyl-13-(3-phenylpropyl)-7-oxa-10,13,18,19-tetrazapentacyclo[15.6.1.1^2,6.1^8,11.0^20,24]hexacosa-1(23),2(26),3,5,17(24),19,21-heptaen-12-one], the IC50 [1] was 31 nM and the IC50 [2] was 1.2 nM.
In the case of `Cn1nc2cccc3c2c1CCCN(CCCN1CCOCC1)C(=O)[C@@H]1C[C@@H](CN1c1ncnc2c1cnn2-c1ccc(F)cc1F)Oc1cccc-3c1` [Example 30, (8S,11S)-10-[1-(2,4-difluorophenyl)pyrazolo[3,4-d]pyrimidin-4-yl]-18-methyl-13-(3-morpholinopropyl)-7-oxa-10,13,18,19-tetrazapentacyclo[15.6.1.1^2,6.1^8,11.0^20,24]hexacosa-1(23),2(26),3,5,17(24),19,21-heptaen-12-one], the IC50 [1] is reported as 173 nM and the IC50 [2] is reported as 2 nM.
`CC(=O)N1CCN(CCCN2CCCc3c4c(cccc4nn3C)-c3cccc(c3)O[C@H]3C[C@@H](C2=O)N(c2ncnc4c2cnn4-c2ccc(F)cc2F)C3)CC1` [Example 33, (8S,11S)-13-[3-(4-acetylpiperazin-1-yl)propyl]-10-[1-(2,4-difluorophenyl)pyrazolo[3,4-d]pyrimidin-4-yl]-18-methyl-7-oxa-10,13,18,19-tetrazapentacyclo[15.6.1.1^2,6.1^8,11.0^20,24]hexacosa-1(23),2(26),3,5,17(24),19,21-heptaen-12-one] gave an IC50 [1] of 806 nM and an IC50 [2] of 1.7 nM.
Work on `Cn1nc2cccc3c2c1CCCN(CCCN1CCN(S(C)(=O)=O)CC1)C(=O)[C@@H]1C[C@@H](CN1c1ncnc2c1cnn2-c1ccc(F)cc1F)Oc1cccc-3c1` [Example 35, (8S,11S)-10-[1-(2,4-difluorophenyl)pyrazolo[3,4-d]pyrimidin-4-yl]-18-methyl-13-[3-(4-methylsulfonylpiperazin-1-yl)propyl]-7-oxa-10,13,18,19-tetrazapentacyclo[15.6.1.1^2,6.1^8,11.0^20,24]hexacosa-1(23),2(26),3,5,17(24),19,21-heptaen-12-one] yielded an IC50 [1] of 183 nM and an IC50 [2] of 0.2 nM.
Work on `Cn1nc2cccc3c2c1CCCN(CCCn1ccnc1)C(=O)[C@@H]1C[C@@H](CN1c1ncnc2c1cnn2-c1ccc(F)cc1F)Oc1cccc-3c1` [Example 38, (8S,11S)-10-[1-(2,4-difluorophenyl)pyrazolo[3,4-d]pyrimidin-4-yl]-13-(3-imidazol-1-ylpropyl)-18-methyl-7-oxa-10,13,18,19-tetrazapentacyclo[15.6.1.1^2,6.1^8,11.0^20,24]hexacosa-1(23),2(26),3,5,17(24),19,21-heptaen-12-one] yielded an IC50 [1] of 465 nM and an IC50 [2] of 0.9 nM.
`Cn1nc2cccc3c2c1CCCN(CCCc1ccccc1)C(=O)[C@@H]1C[C@@H](CN1c1ncnc2c1cnn2-c1ccc(F)cc1F)Oc1cccc-3n1` [Example 41, (8S,11S)-10-[1-(2,4-difluorophenyl)pyrazolo[3,4-d]pyrimidin-4-yl]-18-methyl-13-(3-phenylpropyl)-7-oxa-10,13,18,19,26-pentazapentacyclo[15.6.1.1^2,6.1^8,11.0^20,24]hexacosa-1(23),2(26),3,5,17(24),19,21-heptaen-12-one] gave an IC50 [1] of 48 nM and an IC50 [2] of 2.1 nM.
In the case of `Cn1nc2cccc3c2c1CCCN(CCCO)C(=O)[C@@H]1C[C@@H](CN1c1ncnc2c1cnn2-c1ccc(F)cc1F)Nc1cccc-3n1` [Example 42, (8S,11S)-10-[1-(2,4-difluorophenyl)pyrazolo[3,4-d]pyrimidin-4-yl]-13-(3-hydroxypropyl)-18-methyl-7,10,13,18,19,26-hexazapentacyclo[15.6.1.1^2,6.1^8,11.0^20,24]hexacosa-1(23),2(26),3,5,17(24),19,21-heptaen-12-one], the IC50 [2] is reported as 5.3 nM and the “Clearance of human microsome” value [3] is reported as 13.3 mL/min/kg.
With `COc1cc(F)ccc1-n1ncc2c(N3C[C@@H]4C[C@H]3C(=O)N(CCCN3CCOCC3)CCCc3c5c(cccc5nn3C)-c3cc(C)cc(n3)N4)ncnc21` [Example 46, (8S,11S)-10-[1-(4-fluoro-2-methoxy-phenyl)pyrazolo[3,4-d]pyrimidin-4-yl]-4,18-dimethyl-13-(3-morpholinopropyl)-7,10,13,18,19,26-hexazapentacyclo[15.6.1.1^2,6.1^8,11.0^20,24]hexacosa-1(23),2(26),3,5,17(24),19,21-heptaen-12-one] the IC50 [2] was 7.6 nM and the “Clearance of human microsome” value [3] was 14.9 mL/min/kg.
